# Laboratory results taken from patent US20220274954A1, “SUBSTITUTED N-PHENYL-N-AMINOUARCILS AND SALTS THEREOF AND USE THEREOF AS HERBICIDAL AGENTS” (Bayer Aktiengesellschaft, priority 2019, published 2022).
# Tests used:
# Assay type in all cases: in vivo
# Triticum aestivum = experiment: Post-emergence crop plant compatibility
# Experimental: (§1) Seeds of monocotyledonous and dicotyledonous weeds and crop plants were placed in sandy loam in plastic or wood-fiber pots, covered with soil and cultivated in a greenhouse under controlled growth conditions. 2 to 3 weeks after sowing, the test plants were treated at the one-leaf stage. The compounds of the invention, formulated in the form of wettable powders (WP) or as emulsion concentrates (EC), were then sprayed onto the green parts of the plants as aqueous suspension or emulsion with addition of 0.5% additive at a water application rate of […] (converted). After the test plants had been kept in the greenhouse under optimum growth conditions for about 3 weeks, the activity of the preparations was rated visually in comparison to untreated controls. For example, 100% activity=the plants have died, 0% activity=like control plants.
# (§2) Here, the observed effects on selected crop plants are stated in comparison to the untreated controls (values in %).
# Veronica persica = experiment: Post-emergence herbicidal action; conditions: for pest or weed control at 5 g/ha / pest or weed control at 20 g/ha: Veronica persica, 504 h, read-out: Veronica persica (efficacy in %)
# Experimental: as §1, with “plants. Tables A1 to A14 below show the effects of selected compounds of the general formula (I) according to Tables I.1 to I.34 on various harmful plants and at an application rate corresponding to 20 g/ha and less, which were obtained by the experimental procedure mentioned above.” for “plants.”
# Matricaria inodora = experiment: Post-emergence herbicidal action
# Experimental: as §1, with “plants. Tables A1 to A14 below show the effects of selected compounds of the general formula (I) according to Tables I.1 to I.34 on various harmful plants and at an application rate corresponding to 20 g/ha and less, which were obtained by the experimental procedure mentioned above.” for “plants.”
# Viola tricolor = experiment: Post-emergence herbicidal action; conditions: for pest or weed control at 5 g/ha / pest or weed control at 20 g/ha: Viola tricolor, 504 h, read-out: Viola tricolor (efficacy in %)
# Experimental: as §1, with “plants. Tables A1 to A14 below show the effects of selected compounds of the general formula (I) according to Tables I.1 to I.34 on various harmful plants and at an application rate corresponding to 20 g/ha and less, which were obtained by the experimental procedure mentioned above.” for “plants.”
# Alopecurus myosuroides = experiment: Post-emergence herbicidal action
# Experimental: as §1, with “plants. Tables A1 to A14 below show the effects of selected compounds of the general formula (I) according to Tables I.1 to I.34 on various harmful plants and at an application rate corresponding to 20 g/ha and less, which were obtained by the experimental procedure mentioned above.” for “plants.”
# Avena fatua = experiment: Post-emergence herbicidal action; conditions: application rate 20 g/ha
# Experimental: as §1, with “plants. Tables A1 to A14 below show the effects of selected compounds of the general formula (I) according to Tables I.1 to I.34 on various harmful plants and at an application rate corresponding to 20 g/ha and less, which were obtained by the experimental procedure mentioned above.” for “plants.”
# Echinochloa crus-galli = experiment: Post-emergence herbicidal action
# Experimental: as §1, with “plants. Tables A1 to A14 below show the effects of selected compounds of the general formula (I) according to Tables I.1 to I.34 on various harmful plants and at an application rate corresponding to 20 g/ha and less, which were obtained by the experimental procedure mentioned above.” for “plants.”
# Pharbitis purpurea = experiment: Post-emergence herbicidal action
# Experimental: as §1, with “plants. Tables A1 to A14 below show the effects of selected compounds of the general formula (I) according to Tables I.1 to I.34 on various harmful plants and at an application rate corresponding to 20 g/ha and less, which were obtained by the experimental procedure mentioned above.” for “plants.”
# Abutilon theophrasti = experiment: Post-emergence herbicidal action; conditions: for pest or weed control at 5 g/ha / pest or weed control at 20 g/ha: Abutilon theophrasti, 504 h, read-out: Abutilon theophrasti (efficacy in %)
# Experimental: as §1, with “plants. Tables A1 to A14 below show the effects of selected compounds of the general formula (I) according to Tables I.1 to I.34 on various harmful plants and at an application rate corresponding to 20 g/ha and less, which were obtained by the experimental procedure mentioned above.” for “plants.”
# Amaranthus retroflexus = experiment: Post-emergence herbicidal action; conditions: for pest or weed control at 5 g/ha / pest or weed control at 20 g/ha: Amaranthus retroflexus, 504 h, read-out: Amaranthus retroflexus (efficacy in %)
# Experimental: as §1, with “plants. Tables A1 to A14 below show the effects of selected compounds of the general formula (I) according to Tables I.1 to I.34 on various harmful plants and at an application rate corresponding to 20 g/ha and less, which were obtained by the experimental procedure mentioned above.” for “plants.”
# Oryza sativa = experiment: Post-emergence crop plant compatibility; conditions: application rate 5 g/ha
# Experimental: as §1, §2
# Zea mays = experiment: Post-emergence crop plant compatibility; conditions: application rate 5 g/ha
# Experimental: as §1, §2
# Setaria viridis = experiment: Post-emergence herbicidal action; conditions: 504 h, read-out: Setaria viridis (efficacy in %)
# Experimental: as §1, with “plants. Tables A1 to A14 below show the effects of selected compounds of the general formula (I) according to Tables I.1 to I.34 on various harmful plants and at an application rate corresponding to 20 g/ha and less, which were obtained by the experimental procedure mentioned above.” for “plants.”
# Polygonum convolvulus = experiment: Post-emergence herbicidal action; conditions: Fallopia convolvulus, 504 h, application rate 20 g/ha, read-out: Polygonum convolvulus (efficacy in %)
# Experimental: as §1, with “plants. Tables A1 to A14 below show the effects of selected compounds of the general formula (I) according to Tables I.1 to I.34 on various harmful plants and at an application rate corresponding to 20 g/ha and less, which were obtained by the experimental procedure mentioned above.” for “plants.”
# Digitaria sanguinalis = experiment: Post-emergence herbicidal action; conditions: 504 h, application rate 20 g/ha, read-out: Digitaria sanguinalis (efficacy in %)
# Experimental: as §1, with “plants. Tables A1 to A14 below show the effects of selected compounds of the general formula (I) according to Tables I.1 to I.34 on various harmful plants and at an application rate corresponding to 20 g/ha and less, which were obtained by the experimental procedure mentioned above.” for “plants.”
# [1] = Ipomoea purpurea, 504 h, application rate 20 g/ha, read-out: Pharbitis purpurea (efficacy in %)
SMILES,Triticum aestivum (efficacy in %) (Triticum aestivum; application rate 1.25 g/ha) [%],Alopecurus myosuroides (efficacy in %) (Alopecurus myosuroides; application rate 20 g/ha) [%],Avena fatua (efficacy in %) (Avena fatua) [%],Oryza sativa (efficacy in %) (Oryza sativa) [%],pest or weed control at 5 g/ha (Veronica persica; application rate 5 g/ha) [%],pest or weed control at 20 g/ha (Veronica persica; application rate 20 g/ha) [%],pest or weed control at 5 g/ha (Viola tricolor; application rate 5 g/ha) [%],pest or weed control at 20 g/ha (Viola tricolor; application rate 20 g/ha) [%],pest or weed control at 20 g/ha (Pharbitis purpurea; [1]) [%],pest or weed control at 5 g/ha (Abutilon theophrasti; application rate 5 g/ha) [%],pest or weed control at 20 g/ha (Abutilon theophrasti; application rate 20 g/ha) [%],pest or weed control at 5 g/ha (Amaranthus retroflexus; application rate 5 g/ha) [%],pest or weed control at 20 g/ha (Amaranthus retroflexus; application rate 20 g/ha) [%],further results
N#CCOC(=O)COc1ncccc1Sc1cc(-n2c(=O)cc(C(F)(F)F)n(N)c2=O)c(F)cc1Cl [I.1-176],20,100,80,–,–,–,–,–,–,–,–,–,–,Veronica persica (efficacy in %) (Veronica persica; application rate 5 g/ha): 100%; Veronica persica (efficacy in %) (Veronica persica; application rate 20 g/ha): 100%; Matricaria inodora (efficacy in %) (Matricaria inodora; application rate 5 g/ha): 100%; Matricaria inodora (efficacy in %) (Matricaria inodora; application rate 20 g/ha): 100%; Viola tricolor (efficacy in %) (Viola tricolor; application rate 5 g/ha): 100%; Viola tricolor (efficacy in %) (Viola tricolor; application rate 20 g/ha): 100%; Alopecurus myosuroides (efficacy in %) (Alopecurus myosuroides; application rate 5 g/ha): 90%; Echinochloa crus-galli (efficacy in %) (Echinochloa crus-galli; application rate 5 g/ha): 90%; Echinochloa crus-galli (efficacy in %) (Echinochloa crus-galli; application rate 20 g/ha): 100%; Pharbitis purpurea (efficacy in %) (Pharbitis purpurea; application rate 5 g/ha): 100%; Pharbitis purpurea (efficacy in %) (Pharbitis purpurea; application rate 20 g/ha): 100%; Abutilon theophrasti (efficacy in %) (Abutilon theophrasti; application rate 5 g/ha): 100%; Abutilon theophrasti (efficacy in %) (Abutilon theophrasti; application rate 20 g/ha): 100%; Amaranthus retroflexus (efficacy in %) (Amaranthus retroflexus; application rate 5 g/ha): 100%; Amaranthus retroflexus (efficacy in %) (Amaranthus retroflexus; application rate 20 g/ha): 100%
"CCCCCOC(=O)COc1ncccc1Sc1cc(-n2c(=O)cc(C(F)(F)F)n(N)c2=O)c(F)cc1Cl [I.1-448, n-Pentyl {[3-({5-[3-amino-2,6-dioxo-4-(trifluoromethyl)-3,6-dihydropyrimidin-1(2H)-yl]-2-chloro-4-fluorophenyl}sulfanyl)pyridin-2-yl]oxy}acetate]",0,–,–,0,80,80,100,100,100,80,80,100,100,Triticum aestivum (efficacy in %) (Triticum aestivum; application rate 5 g/ha): 10%; Zea mays (efficacy in %) (Zea mays): 20%; pest or weed control at 5 g/ha (Setaria viridis; application rate 5 g/ha): 80%; pest or weed control at 20 g/ha (Setaria viridis; application rate 20 g/ha): 100%; pest or weed control at 20 g/ha (Polygonum convolvulus): 100%; pest or weed control at 20 g/ha (Digitaria sanguinalis): 100%
"COCCOCCOC(=O)COc1ncc(F)cc1Sc1cc(-n2c(=O)cc(C(F)(F)F)n(N)c2=O)c(F)cc1Cl [I.31-23, 2-(2-Methoxyethoxy)ethyl {[3-({5-[3-amino-2,6-dioxo-4-(trifluoromethyl)-3,6-dihydropyrimidin-1(2H)-yl]-2-chloro-4-fluorophenyl}sulfanyl)-5-fluoropyridin-2-yl]oxy}acetate]",–,100,80,20,100,100,100,100,100,100,100,100,100,"pest or weed control at 5 g/ha (Matricaria inodora; Tripleurospermum inodorum, 504 h, application rate 5 g/ha, read-out: Matricaria inodora (efficacy in %)): 100%; pest or weed control at 20 g/ha (Matricaria inodora; Tripleurospermum inodorum, 504 h, application rate 20 g/ha, read-out: Matricaria inodora (efficacy in %)): 100%; pest or weed control at 5 g/ha (Echinochloa crus-galli; Echinochloa crus-galli, 504 h, application rate 5 g/ha, read-out: Echinochloa crus-galli (efficacy in %)): 80%; pest or weed control at 20 g/ha (Echinochloa crus-galli; Echinochloa crus-galli, 504 h, application rate 20 g/ha, read-out: Echinochloa crus-galli (efficacy in %)): 100%; pest or weed control at 5 g/ha (Pharbitis purpurea; Ipomoea purpurea, 504 h, application rate 5 g/ha, read-out: Pharbitis purpurea (efficacy in %)): 100%"
